We go through 20 compounds from patent publication US10717716B2, “1,3,4-oxadiazole derivative compounds as histone deacetylase 6 inhibitor, and the pharmaceutical composition comprising the same” (Chong Kun Dang Pharmaceutical Corp., priority 2015, dated 2020).

pIC50: −log10 of the molar value.

This assay concerns the target T1, human recombinant HDAC6 (Homo sapiens, UniProt Q9UBN7).
T1 construct: purchased Calbiochem 382180
T1 sequence (Q9UBN7 1-1215): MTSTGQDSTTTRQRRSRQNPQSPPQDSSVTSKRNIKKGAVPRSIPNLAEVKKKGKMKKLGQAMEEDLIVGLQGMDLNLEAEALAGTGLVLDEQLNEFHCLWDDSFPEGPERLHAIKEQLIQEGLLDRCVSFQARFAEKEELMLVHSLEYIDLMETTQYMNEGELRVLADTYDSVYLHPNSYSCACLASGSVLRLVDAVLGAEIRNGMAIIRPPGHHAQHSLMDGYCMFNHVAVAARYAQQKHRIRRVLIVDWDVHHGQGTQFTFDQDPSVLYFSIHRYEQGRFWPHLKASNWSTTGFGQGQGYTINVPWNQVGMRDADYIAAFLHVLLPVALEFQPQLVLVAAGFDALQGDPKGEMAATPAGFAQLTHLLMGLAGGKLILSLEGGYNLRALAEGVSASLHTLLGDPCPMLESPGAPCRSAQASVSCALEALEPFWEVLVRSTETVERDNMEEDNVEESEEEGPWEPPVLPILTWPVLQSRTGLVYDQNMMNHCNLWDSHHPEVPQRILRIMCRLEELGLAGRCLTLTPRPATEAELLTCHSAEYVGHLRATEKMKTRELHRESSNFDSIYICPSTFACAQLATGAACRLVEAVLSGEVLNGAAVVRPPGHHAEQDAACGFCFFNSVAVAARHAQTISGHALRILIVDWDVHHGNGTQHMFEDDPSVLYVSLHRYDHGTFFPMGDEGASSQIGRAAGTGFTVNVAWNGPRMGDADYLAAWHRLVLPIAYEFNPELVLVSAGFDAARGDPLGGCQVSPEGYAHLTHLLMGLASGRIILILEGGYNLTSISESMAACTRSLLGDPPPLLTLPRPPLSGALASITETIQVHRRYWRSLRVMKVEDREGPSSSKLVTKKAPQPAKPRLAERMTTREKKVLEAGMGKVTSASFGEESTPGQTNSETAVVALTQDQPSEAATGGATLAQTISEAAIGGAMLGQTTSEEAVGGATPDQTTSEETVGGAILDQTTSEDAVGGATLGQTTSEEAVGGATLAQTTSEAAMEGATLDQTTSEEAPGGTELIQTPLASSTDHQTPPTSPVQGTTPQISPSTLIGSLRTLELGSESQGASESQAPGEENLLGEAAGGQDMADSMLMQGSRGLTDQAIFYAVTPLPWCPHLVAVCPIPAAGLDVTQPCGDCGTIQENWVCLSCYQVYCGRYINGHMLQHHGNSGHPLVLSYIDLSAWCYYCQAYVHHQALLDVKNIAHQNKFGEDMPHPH
Nature of the assay: HDAC6 enzyme activity inhibition assay (HDAC Fluorimetric Drug Discovery Kit). In kind it is biochemical. Conditions: for HDAC6 selectivity (fold): HDAC6 over HDAC1; for pIC50: human recombinant HDAC6, same protocol as HDAC1, read-out: HDAC6. The method, boiled down: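 Human recombinant HDAC1 or HDAC6 (0.3 μg) reacted with 10 μM Fluor de Lys-SIRT1 substrate and 5-fold compound dilutions for 60 min at 30 °C. Developer II added for 30 min, fluorescence read at Ex 360/Em 460; IC50 calculated from the readings.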

For `Cc1ccc(N(Cc2ccc(-c3nnc(C(F)F)o3)cc2F)C(=O)N2CCN(C)CC2)cc1` [Compound 21471, N-(4-(5-(difluoromethyl)-1,3,4-oxadiazol-2-yl)-2-fluorobenzyl)-4-methyl-N-(p-tolyl)piperazine-1-carboxamide], the “HDAC6 selectivity (fold)” value was 213 fold and the pIC50 was 7.33.

As to `COc1ccccc1N(Cc1ccc(-c2nnc(C(F)F)o2)cc1F)C(=O)N1CCN(C)CC1` [Compound 21472, N-(4-(5-(difluoromethyl)-1,3,4-oxadiazol-2-yl)-2-fluorobenzyl)-N-(2-methoxyphenyl)-4-methylpiperazine-1-carboxamide], the “HDAC6 selectivity (fold)” value was 217 fold and the pIC50 was 7.34.

Take `COc1cccc(N(Cc2ccc(-c3nnc(C(F)F)o3)cc2F)C(=O)N2CCN(C)CC2)c1` [Compound 21473, N-(4-(5-(difluoromethyl)-1,3,4-oxadiazol-2-yl)-2-fluorobenzyl)-N-(3-methoxyphenyl)-4-methylpiperazine-1-carboxamide]: the “HDAC6 selectivity (fold)” value is given as 313 fold and the pIC50 was 7.49.

`COc1ccccc1N(Cc1ccc(-c2nnc(C(F)F)o2)cc1)C(=O)N1CCS(=O)(=O)CC1` [Compound 21474, N-(4-(5-(difluoromethyl)-1,3,4-oxadiazol-2-yl)benzyl)-N-(2-methoxyphenyl)thiomorpholine-4-carboxamide 1,1-dioxide]: the “HDAC6 selectivity (fold)” value amounted to 77 fold and the pIC50 is 6.89.

As to `COc1cccc(N(Cc2ccc(-c3nnc(C(F)F)o3)cc2)C(=O)N2CCS(=O)(=O)CC2)c1` [Compound 21475, N-(4-(5-(difluoromethyl)-1,3,4-oxadiazol-2-yl)benzyl)-N-(3-methoxyphenyl)thiomorpholine-4-carboxamide 1,1-dioxide], the “HDAC6 selectivity (fold)” value stood at 145 fold and the pIC50 was 7.16.

On to `Cc1cccc(N(Cc2ccc(-c3nnc(C(F)F)o3)cc2)C(=O)N2CCS(=O)(=O)CC2)c1` [Compound 21476, N-(4-(5-(difluoromethyl)-1,3,4-oxadiazol-2-yl)benzyl)-N-(m-tolyl)thiomorpholine-4-carboxamide 1,1-dioxide], for which the “HDAC6 selectivity (fold)” value is listed as 196 fold and the pIC50 was 7.29.

In the case of `COc1ccc(N(Cc2ccc(-c3nnc(C(F)(F)F)o3)cc2F)C(=O)N2CCS(=O)(=O)CC2)cc1` [Compound 21477, N-(2-fluoro-4-(5-(trifluoromethyl)-1,3,4-oxadiazol-2-yl)benzyl)-N-(4-methoxyphenyl)thiomorpholine-4-carboxamide 1,1-dioxide], the “HDAC6 selectivity (fold)” value was 137 fold and the pIC50 was 7.14.

Turning to `COc1ccc(N(Cc2ccc(-c3nnc(C(F)F)o3)cc2F)C(=O)N2CCS(=O)(=O)CC2)cc1` [Compound 21478, N-(4-(5-(difluoromethyl)-1,3,4-oxadiazol-2-yl)-2-fluorobenzyl)-N-(4-methoxyphenyl)thiomorpholine-4-carboxamide 1,1-dioxide], the “HDAC6 selectivity (fold)” value is 270 fold and the pIC50 is 7.43.

With `COc1ccccc1N(Cc1ccc(-c2nnc(C(F)(F)F)o2)cc1F)C(=O)N1CCS(=O)(=O)CC1` [Compound 21479, N-(2-fluoro-4-(5-(trifluoromethyl)-1,3,4-oxadiazol-2-yl)benzyl)-N-(2-methoxyphenyl)thiomorpholine-4-carboxamide 1,1-dioxide], the “HDAC6 selectivity (fold)” value is on record as 167 fold and the pIC50 is 7.22.

Consider `COc1ccccc1N(Cc1ccc(-c2nnc(C(F)F)o2)cc1F)C(=O)N1CCS(=O)(=O)CC1` [Compound 21480, N-(4-(5-(difluoromethyl)-1,3,4-Oxadiazol-2-yl)-2-fluorobenzyl)-N-(2-methoxyphenyl)thiomorpholine-4-carboxamide 1,1-dioxide], for which the “HDAC6 selectivity (fold)” value is given as 204 fold and the pIC50 is 7.31.

Turning to `COc1cccc(N(Cc2ccc(-c3nnc(C(F)(F)F)o3)cc2F)C(=O)N2CCS(=O)(=O)CC2)c1` [Compound 21481, N-(2-fluoro-4-(5-(trifluoromethyl)-1,3,4-oxadiazol-2-yl)benzyl)-N-(3-methoxyphenyl)thiomorpholine-4-carboxamide 1,1-dioxide], the “HDAC6 selectivity (fold)” value was found to be 172 fold and the pIC50 was 7.24.

Consider `COc1cccc(N(Cc2ccc(-c3nnc(C(F)F)o3)cc2F)C(=O)N2CCS(=O)(=O)CC2)c1` [Compound 21482, N-(4-(5-(difluoromethyl)-1,3,4-oxadiazol-2-yl)-2-fluorobenzyl)-N-(3-methoxyphenyl)thiomorpholine-4-carboxamide 1,1-dioxide], for which the “HDAC6 selectivity (fold)” value was 323 fold and the pIC50 is 7.51.

As to `Cc1cccc(N(Cc2ccc(-c3nnc(C(F)(F)F)o3)cc2F)C(=O)N2CCS(=O)(=O)CC2)c1` [Compound 21483, N-(2-fluoro-4-(5-(trifluoromethyl)-1,3,4-oxadiazol-2-yl)benzyl)-N-(m-tolyl)thiomorpholine-4-carboxamide 1,1-dioxide], the “HDAC6 selectivity (fold)” value is recorded as 141 fold and the pIC50 was 7.15.

In the case of `Cc1cccc(N(Cc2ccc(-c3nnc(C(F)F)o3)cc2F)C(=O)N2CCS(=O)(=O)CC2)c1` [Compound 21484, N-(4-(5-(difluoromethyl)-1,3,4-oxadiazol-2-yl)-2-fluorobenzyl)-N-(m-tolyl)thiomorpholine-4-carboxamide 1,1-dioxide], the “HDAC6 selectivity (fold)” value is listed as 476 fold and the pIC50 was 7.68.

For the compound `O=C(N1CCS(=O)(=O)CC1)N(Cc1ccc(-c2nnc(C(F)F)o2)cc1)c1ccc(-c2ccccc2)cc1` [Compound 21486, N-([1,1′-biphenyl]-4-yl)-N-(4-(5-(difluoromethyl)-1,3,4-oxadiazol-2-yl)benzyl)thiomorpholine-4-carboxamide 1,1-dioxide], the “HDAC6 selectivity (fold)” value is on record as 120 fold and the pIC50 was 7.08.

For `Cn1ncc2ccc(-c3ccc(N(Cc4ccc(-c5nnc(C(F)F)o5)cc4)C(=O)N4CCS(=O)(=O)CC4)cc3)cc21` [Compound 21488, N-(4-(5-(difluoromethyl)-1,3,4-oxadiazol-2-yl)benzyl)-N-(4-(1-methyl-1H-indazol-6-yl)phenyl)thiomorpholine-4-carboxamide 1,1-dioxide], the “HDAC6 selectivity (fold)” value is on record as 90 fold and the pIC50 is 6.95.

Take `O=C(N1CCS(=O)(=O)CC1)N(Cc1ccc(-c2nnc(C(F)F)o2)cc1)c1ccc(-c2cccnc2)cc1` [Compound 21490, N-(4-(5-(difluoromethyl)-1,3,4-oxadiazol-2-yl)benzyl)-N-(4-(pyridin-3-yl)phenyl)thiomorpholine-4-carboxamide 1,1-dioxide]: the “HDAC6 selectivity (fold)” value turned out to be 270 fold and the pIC50 is 7.43.

Regarding `O=C(N1CCS(=O)(=O)CC1)N(Cc1ccc(-c2nnc(C(F)F)o2)cc1)c1ccc(-c2ccoc2)cc1` [Compound 21492, N-(4-(5-(difluoromethyl)-1,3,4-oxadiazol-2-yl)benzyl)-N-(4-(furan-3-yl)phenyl)thiomorpholine-4-carboxamide 1,1-dioxide], the “HDAC6 selectivity (fold)” value was determined as 278 fold and the pIC50 was 7.44.

As to `O=C(N1CCS(=O)(=O)CC1)N(Cc1ccc(-c2nnc(C(F)F)o2)cc1)c1ccc(-c2ccc3c(c2)OCO3)cc1` [Compound 21494, N-(4-(benzo[d][1,3]dioxol-5-yl)phenyl)-N-(4-(5-(difluoromethyl)-1,3,4-oxadiazol-2-yl)benzyl)thiomorpholine-4-carboxamide 1,1-dioxide], the “HDAC6 selectivity (fold)” value is recorded as 89 fold and the pIC50 is 6.95.

Regarding `O=C(N1CCC2(CC1)CNC2)N(Cc1ccc(-c2nnc(C(F)F)o2)cc1F)c1ccccc1` [Compound 21495, N-(4-(5-(difluoromethyl)-1,3,4-oxadiazol-2-yl)-2-fluorobenzyl)-N-phenyl-2,7-diazaspiro[3.5]nonane-7-carboxamide], the “HDAC6 selectivity (fold)” value amounted to 294 fold and the pIC50 is 7.47.
